We go through 20 compounds from ChEMBL document CHEMBL5331099, “Chemical scaffold recycling: Structure-guided conversion of an HIV integrase inhibitor into a potent influenza virus RNA-dependent RNA polymerase inhibitor designed to minimize resistance potential” (Eur J Med Chem, 2023).

The first experiment can be described thus: Inhibition of Influenza A virus A/California/04/2009 (H1N1) N-terminal his tagged domain of PA endonuclease expressed in Escherichia coli BL21 (DE3) cells preincubated with enzyme for 1 hr followed by RNA addition and measured after 90 mins by MALDI-FTICR-MS analysis.
For `O=C1NCCc2cccc(c2)OC/C=C/COc2cccc(c2)-c2nc1c(O)c(=O)[nH]2`, the IC50 – broadly, the point on the concentration scale where inhibition reaches its midpoint – is 12500 nM. This counts as double-digit micromolar.

Compound `COc1cc(CCNC(=O)c2nc(C(C)(C)NC(=O)OCc3ccccc3)[nH]c(=O)c2O)ccc1O` registered an IC50 of 620 nM. This IC50 lies about 20-fold lower than the previous one.

`Nc1ncnc2c1ncn2CCNC(=O)c1nc(-c2ccccc2C(F)(F)F)[nH]c(=O)c1O` displayed an IC50 of 290 nM.

Consider `COc1cnccc1CCNC(=O)c1nc(-c2ccccc2C(F)(F)F)[nH]c(=O)c1O`, for which the IC50 came out at 420 nM.

`COc1cnccc1CCNC(=O)c1nc(-c2cccc(C(F)(F)F)c2)[nH]c(=O)c1O`: the IC50 stood at 4530 nM.

Consider `CC(C)(NC(=O)OCc1ccccc1)c1nc(O)c(O)c(C(=O)NCCc2ccc(F)cc2)n1`, for which the IC50 worked out at 6450 nM.

As for `COc1cnccc1CCNC(=O)c1nc(-c2ccc(C(F)(F)F)cc2)[nH]c(=O)c1O`, the IC50 is > 20000 nM.

Take `COc1cnccc1CCNC(=O)c1nc(-c2c(F)cccc2F)[nH]c(=O)c1O`: the IC50 was determined as 1110 nM.

`COc1cnccc1CCNC(=O)c1nc(C(C)(C)NC(=O)OCc2ccccc2)[nH]c(=O)c1O` registered an IC50 of 1970 nM. Against the preceding compound, the IC50 is about 1.8-fold higher.

In turn, `O=C1NCCc2cccc(c2)OC/C=C\COc2cccc(c2)-c2nc1c(O)c(=O)[nH]2` showed an IC50 of 4960 nM. Compared with the last compound, the IC50 is about 2.5-fold higher.

Consider `CC(C)(NC(=O)OCc1ccccc1)c1nc(C(=O)NCCn2cnc3c(N)ncnc32)c(O)c(=O)[nH]1`, for which the IC50 turned out to be 1620 nM.

Regarding `CC(C)(NC(=O)OCc1ccccc1)c1nc(C(=O)NCc2ccc(F)cc2)c(O)c(=O)[nH]1`, the IC50 is > 20000 nM.

With `O=C1c2c(O)c(=O)ccn2N([C@@H]2c3ccccc3SCc3c2ccc(F)c3F)C2COCCN12` (stereo partly drawn), the IC50 was 50 nM. That is a double-digit nanomolar value.

The compound `COc1cc(CCNC(=O)c2nc(-c3ccccc3C(F)(F)F)[nH]c(=O)c2O)ccc1O` registered an IC50 of 270 nM.

`COc1cnccc1CCNC(=O)c1nc(-c2ccccc2)[nH]c(=O)c1O` showed an IC50 of 1220 nM.

With `O=C1NCCc2cccc(c2)OCCCCOc2cccc(c2)-c2nc1c(O)c(=O)[nH]2`, the IC50 is > 20000 nM.

`COc1cnccc1CCNC(=O)c1nc(-c2ccccc2C)[nH]c(=O)c1O` returned an IC50 of 390 nM.

Regarding `COc1cnccc1CCNC(=O)c1nc(Cc2ccccc2C(F)(F)F)[nH]c(=O)c1O`, the IC50 is > 20000 nM.

In the case of `Cc1nnc(C(=O)NC(C)(C)c2nc(C(=O)NCc3ccc(F)cc3)c(O)c(=O)n2C)o1` [RALTEGRAVIR], the IC50 was > 20000 nM.

`COc1cnccc1CCNC(=O)c1nc(-c2ccccc2F)[nH]c(=O)c1O`: half-maximal inhibition (IC50) was put at 820 nM. This counts as sub-micromolar.

A short description of the next experiment: Binding affinity to Influenza A virus A/California/04/2009 (H1N1) wild type N-terminal his tagged domain of PA endonuclease expressed in Escherichia coli BL21 (DE3) cells assessed as dissociation constant by MST assay.
Consider `Nc1ncnc2c1ncn2CCNC(=O)c1nc(-c2ccccc2C(F)(F)F)[nH]c(=O)c1O`, for which the Kd (in general, a measure of binding affinity in units of concentration) is 18 nM.

As for `COc1cnccc1CCNC(=O)c1nc(-c2ccccc2C(F)(F)F)[nH]c(=O)c1O`, the Kd is 54 nM.

With `O=C1c2c(O)c(=O)ccn2N([C@@H]2c3ccccc3SCc3c2ccc(F)c3F)C2COCCN12` (stereo partly drawn), the Kd turned out to be 6 nM.
